This is an account of results in article PMC4334692 (Bioorganic & medicinal chemistry letters, 2015).

For experiment [1], the target named is T1, STEP (Homo sapiens, UniProt P54829).
T1 sequence (P54829 1-565): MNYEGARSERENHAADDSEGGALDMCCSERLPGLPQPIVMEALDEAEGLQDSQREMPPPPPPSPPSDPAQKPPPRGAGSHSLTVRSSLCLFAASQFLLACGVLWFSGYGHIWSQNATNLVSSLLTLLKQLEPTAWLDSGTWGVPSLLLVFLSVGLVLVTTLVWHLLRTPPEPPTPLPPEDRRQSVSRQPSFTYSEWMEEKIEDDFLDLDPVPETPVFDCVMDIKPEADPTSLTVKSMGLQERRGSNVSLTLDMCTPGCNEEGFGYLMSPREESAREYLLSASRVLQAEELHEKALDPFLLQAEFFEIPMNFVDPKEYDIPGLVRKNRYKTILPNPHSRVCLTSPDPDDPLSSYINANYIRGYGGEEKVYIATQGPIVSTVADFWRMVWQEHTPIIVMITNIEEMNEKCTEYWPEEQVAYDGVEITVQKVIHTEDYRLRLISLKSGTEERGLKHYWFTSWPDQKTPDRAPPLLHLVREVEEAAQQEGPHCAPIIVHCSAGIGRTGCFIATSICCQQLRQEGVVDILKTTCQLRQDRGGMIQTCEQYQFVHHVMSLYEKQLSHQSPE
Kind of experiment: Second order rate of inactivation of STEP. As to conditions: no GSH added; quadruplicate, mean ± S.D. It is filed as biochemical.

For experiment [2], the system named is Alzheimer's disease (AD) mice. As to conditions: novel object recognition and Morris water maze tests, ref [4]; cited from earlier work.
For experiment [3], the system named is rat cortical neurons. As to conditions: ref [4]; cited from earlier work.

Consider `O=C(Nc1cc(C(F)(F)F)cc2c1SSSSS2)C(F)(F)F` [Compound 23], for which, in experiment [1], the Kinact/Ki is reported as 161,000 ± 26,000 M^-1S^-1.
Take `Cl.Nc1cc(C(F)(F)F)cc2c1SSSSS2` [TC-2153, 8-(trifluoromethyl)-1,2,3,4,5-benzopentathiepin-6-amine hydrochloride]: the cognitive deficits entry in experiment [2] is “reduced cognitive deficits”. Moreover, the “phosphorylation levels of STEP substrates GluN2B, Pyk2 and ERK1/2” value in experiment [3] is on record as “enhanced the phosphorylation levels”.
